Measured values: ChEMBL document CHEMBL1201862, “PubChem BioAssay data set” (2004)
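A five-concentration, 48-hour dose response in 96-well plates underlies each endpoint, interpolated linearly between surrounding concentrations. GI50 marks 50% less growth.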 Activity calls are given as the source filed them. Cut-off read from the data, not from the text of the source: active = GI50 up to about 1.1 µM and inactive = higher.

Experiments:
Test in all cases: inhibition of tumour cell growth, NCI panel, 48 h
RXF 631 = tested on: RXF 631
LXFL 529 = tested on: LXFL 529
DMS-114 = tested on: DMS-114
DMS-273 = tested on: DMS-273
KM-20L2 = tested on: KM-20L2
SNB-78 = tested on: SNB-78
BT-549 = tested on: BT-549
Hs-578T = tested on: Hs-578T
HOP-18 = tested on: HOP-18

Compound | GI50 (DMS-273) | GI50 (KM-20L2) | GI50 (SNB-78) | GI50 (BT-549) | GI50 (Hs-578T) | further results
CC1CCC(C(C)C)C(O[C@@H]2OC(=O)C[C@@H]2Sc2ccccc2)C1 (stereo partly drawn) | 18.4 µM (inactive) | > 10 µM (inactive) | 25.3 µM (inactive) |  |  | GI50 (RXF 631): 21.2 µM (inactive); GI50 (LXFL 529): 19.1 µM (inactive); GI50 (DMS-114): 19.5 µM (inactive)
CCOC(=O)c1c2c(n3ccccc13)C(=O)c1ccccc1C2=O |  |  |  | 21.6 µM (inactive) | 19.7 µM (inactive) | 
CCC1=C(CC2NCCc3cc(OC)c(OC)cc32)CC2c3ccccc3CCN2C1 (stereo not drawn) |  |  |  | 49.4 µM (inactive) | 15.4 µM (inactive) | 
CN(C)/N=N/c1ccc2[nH]c(=O)[nH]c2c1 |  |  |  | > 100 µM (inactive) | > 100 µM (inactive) | 
CC1(C)OCC(C(O)C2OC(C)(C)OC2/C=N\O)O1 (stereo not drawn) | > 100 µM (inactive) | > 100 µM (inactive) | > 100 µM (inactive) |  |  | GI50 (LXFL 529): > 100 µM (inactive); GI50 (DMS-114): > 100 µM (inactive); GI50 (HOP-18): 37.5 µM (inactive)
CCC(C)(C)NC1=C(NC(C)=O)C(=O)c2ccccc2C1=O | 53.5 µM (inactive) | > 75 µM (inactive) | 35.2 µM (inactive) |  |  | GI50 (LXFL 529): 45.6 µM (inactive)
CCOC(=O)c1nc2ccc(C(F)(F)F)cc2nc1Oc1cc(OC)c(OC)c(OC)c1 |  |  |  | > 100 µM (inactive) | 16.8 µM (inactive) | 
OCC1=CC(NC2CC(CO)C(O)C(O)C2O)C(O)C(O)C1O (stereo not drawn) | > 100 µM (inactive) |  |  |  |  | GI50 (DMS-114): > 100 µM (inactive); GI50 (HOP-18): > 100 µM (inactive)
COc1cc(C2c3cc4c(cc3OC(N3CCOCC3)C2C)OCO4)cc(OC)c1OC(C)=O (stereo not drawn) |  |  |  | 7.89 µM (inactive) | 2.2 µM (inactive) | 
O=C1CSC2(CC(/C=C/C=C/c3ccccc3)=NN2c2cccc(S(=O)(=O)O)c2)N1c1nc2ccccc2s1 (stereo not drawn) |  |  |  | 51.5 µM (inactive) |  | 
CCOc1ccccc1/C=C(/C#N)C(N)=O |  |  |  | > 100 µM (inactive) | > 100 µM (inactive) | 
CC(C)=CCC/C(C)=C/CC/C(C)=C/CCN(C)CCO |  |  |  | 10.8 µM (inactive) | 1.88 µM (inactive) | 
COc1ccc(C(=C(I)c2ccccc2)c2ccc(OC)cc2)cc1 |  |  |  | > 100 µM (inactive) | > 100 µM (inactive) | 
CC(O)C1CC1(CO)CNc1cc(Cl)nc(N)n1 (stereo not drawn) |  |  |  | > 100 µM (inactive) | > 100 µM (inactive) | 
Nc1nc(N)c2ncn(-c3ccc(Br)cc3)c2n1 |  |  |  | 97.7 µM (inactive) | 4.12 µM (inactive) | 
Cc1nc2ccc(Cl)cc2c2c1CCN2c1ccc(F)cc1 |  |  |  |  | 26.3 µM (inactive) | 
O=c1oc2c/c(=C\c3ccccc3)c(=O)c3cccc1c3-2 |  |  |  | 28.3 µM (inactive) | 14.8 µM (inactive) | 
COC1=CC(=O)[C@]2(C)[C@H](C1=O)C(C)[C@H]2c1ccccc1 (stereo partly drawn) | > 100 µM (inactive) |  | > 100 µM (inactive) |  |  | GI50 (RXF 631): > 100 µM (inactive); GI50 (LXFL 529): > 100 µM (inactive)
CO[C@](C(=O)OC[C@H]1[C@@H](COC(C)=O)[C@@H]2O[C@H]1c1cc3c(cc12)OCO3)(c1ccccc1)C(F)(F)F |  |  |  | 22.9 µM (inactive) |  | 
C[C@]12CCC(=O)C=C1CC[C@@H]1[C@@H]2[C@@H](O)C[C@@]2(C)[C@H]1CC[C@]2(O)C(=O)COC(=O)COCC(=O)O | > 100 µM (inactive) | > 100 µM (inactive) | 20.9 µM (inactive) |  |  | GI50 (DMS-114): > 100 µM (inactive); GI50 (HOP-18): > 100 µM (inactive)
COc1cc2c(c(OC)c1OC)-c1ccc(SC)c(=O)cc1[C@@H](OC(=O)c1ccncc1)CC2 |  |  |  | < 0.01 µM (active) | < 0.01 µM (active) | 
CCCCCCCCCCCCCCC(O)C1CCC(C(O)CCC(O)CCCCCC(O)CC2=CC(C)OC2=O)O1 (stereo not drawn) | 1.4 µM (inactive) | 3.4 µM (inactive) | 1.49 µM (inactive) |  |  | GI50 (RXF 631): 2.94 µM (inactive); GI50 (LXFL 529): 2.11 µM (inactive); GI50 (DMS-114): < 0.01 µM (active)
COc1c2ccoc2c(S(=O)(=O)Nc2ccc(Cl)cc2)c2oc(C)cc(=O)c12 | > 100 µM (inactive) | > 100 µM (inactive) | > 100 µM (inactive) |  |  | GI50 (DMS-114): > 68.2 µM (inactive); GI50 (HOP-18): > 54.8 µM (inactive)
O=C(NCCCN1CCN(CCCNC(=O)Nc2cccc3ccccc23)CC1)Nc1cccc2ccccc12 |  |  |  | 13.2 µM (inactive) | 17.5 µM (inactive) | 
Cc1cc(-c2nc3cc(F)ccc3s2)ccc1N |  |  |  | > 48 µM (inactive) | 26.5 µM (inactive) | 
CCOC(=O)CNc1nnnn1C1OC(CO)C(O)C1O (stereo not drawn) | > 100 µM (inactive) | > 100 µM (inactive) | > 100 µM (inactive) |  |  | GI50 (LXFL 529): > 100 µM (inactive); GI50 (DMS-114): > 100 µM (inactive)
COC(=O)C1CCN(C(=O)OC(C)(C)C)CC1 |  |  |  | 0.993 µM (active) | > 100 µM (inactive) | 
COc1cccc(NC(=O)C(=O)C(C(=O)c2ccccc2F)C2OC(=O)c3ccccc32)c1 (stereo not drawn) | 29 µM (inactive) | 33.3 µM (inactive) | 15.5 µM (inactive) |  |  | GI50 (LXFL 529): 33.6 µM (inactive)
COc1cc(-c2cc(O)c3ccccc3n2)cc(OC)c1OC | > 75 µM (inactive) | > 75 µM (inactive) | > 75 µM (inactive) |  |  | GI50 (LXFL 529): > 75 µM (inactive); GI50 (DMS-114): > 75 µM (inactive)
c1ccc(C2=NCCN2)c(C2=NCCN2)c1 |  |  |  | > 100 µM (inactive) | > 100 µM (inactive) | 
